Patent US12617762B2, “Carboxy derivatives with antiinflamatory properties” (Sitryx Therapeutics Limited, priority 2019, dated 2026)

Columns and labels:
[1] = test system: IL-1β cytokine output from THP-1s; experiment: THP-1 AlphaLISA IL-1β cytokine inhibition assay; type: cell-based
In short: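 THP-1 cells differentiated with PMA for 72 h, pre-incubated with compound 30 min, then LPS-primed 24 h and Nigericin-stimulated 1 h (37° C./5% CO2). Supernatant IL-1β measured by AlphaLISA; percentage inhibition normalised to +LPS (high) and −LPS (low) plate controls.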

[2] = test system: IL-6 cytokine output from THP-1s; experiment: THP-1 AlphaLISA IL-6 cytokine inhibition assay; type: cell-based
In short: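 THP-1 cells differentiated with PMA for 72 h, then pre-incubated with compound 30 min, stimulated with LPS 24 h, then Nigericin 1 h, all at 37° C. Supernatant IL-6 measured by AlphaLISA. Percentage inhibition normalized to +/− LPS plate controls.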

[3] = test system: NRF2 (nuclear factor erythroid 2-related factor 2); experiment: NRF2 +/-GSH activation assay (DiscoverX PathHunter NRF2 translocation kit, U2OS cells); type: cell-based
In short: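 U2OS PathHunter eXpress cells, 24 h post-plating, treated with compound ±GSH (+GSH arm: 30 min compound–GSH pre-incubation, 6 mM working GSH), then 6 h at 37 °C. NRF2 nuclear translocation read by enzyme-fragment-complementation chemiluminescence; % activation normalised to DMF high and untreated low controls.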

[4] = test system: mouse cryopreserved hepatocytes; experiment: Hepatocyte stability assay, mouse; type: in vitro ADME
In short: (§1)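 Cells and buffer-only plates are preincubated 10 min at 37° C; 10 μM test compound is then added to hepatocytes (0.5×10^6 cells/mL) and sampled to 60 min. Aliquots are crashed into acetonitrile, spun, and measured by LC-MS/MS to calculate intrinsic clearance from the decline of parent.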

[5] = test system: human cryopreserved hepatocytes; experiment: Hepatocyte stability assay, human; type: in vitro ADME
In short: as §1

[6] = Hepatocyte stability assay, mouse; type: in vitro ADME; settings: mouse, hepatocytes
In short: as §1

[7] = Hepatocyte stability assay, human; type: in vitro ADME; settings: human, hepatocytes
In short: as §1

[8] = differentiated THP-1 cells, LPS then nigericin
[9] = −GSH, normalised to DMF high control
[10] = Mouse hepatocytes, compound 10 μM, 0.5×10^6 cells/mL, 60 minutes (a n=2, b n=3)
[11] = Human hepatocytes, compound 10 μM, 0.5×10^6 cells/mL, 60 minutes (a n=2, c n=4)
[12] = Homo sapiens, THP-1, differentiated THP-1 cells, LPS then nigericin
[13] = Homo sapiens, THP-1, differentiated THP-1 cells, data from repeated experiments

For `C=C(CC(=O)OCCCCCCCC)C(=O)O` [4-octyl itaconate, 4-Octyl itaconate, reference compound], the IC50 [1, 8] was 37.8 µM, the IC50 [2, 8] was 19.1 µM and the “NRF2 activation +GSH Emax” value ([3]; normalised to DMF high control) was 148%. The “NRF2 activation −GSH Emax” value [3, 9] was 165%, the “Hepatocyte stability Clint” value [4, 10] was 351 μL min^−1 10^−6 cells and the “Hepatocyte stability T½” value [4, 10] was 4 min. The “Hepatocyte stability Clint” value [5, 11] was 401 μL min^−1 10^−6 cells and the “Hepatocyte stability T½” value [5, 11] was 4 min.
Compound `C=C(Cc1nc(CCCCCCCC)no1)C(=O)O` [Example 1, 2-((3-octyl-1,2,4-oxadiazol-5-yl)methyl)acrylic acid] has an IC50 ([1]; Homo sapiens, THP-1, Table 3, head to head comparison of exo vs endo double bond compounds) of 4.9 µM, an IC50 ([1]; Homo sapiens, THP-1, Table 3, data from repeated experiment) of 4.7 µM and an IC50 [1, 12] of 4.9 µM. The IC50 [1, 13] was 4.7 µM, the “reduction of cytokine release versus comparators, in words” value ([1]; compared with 4-octyl itaconate and 2-(2-chlorobenzyl)acrylic acid) was “reduced cytokine release more effectively than 4-octyl itaconate and 2-(2-chlorobenzyl)acrylic acid” and the IC50 [2, 12] was 3.7 µM. The IC50 [2, 13] was 4 µM, the “NRF2 activation +GSH Emax” value ([3]; normalised to DMF high control) was 187% and the “NRF2 activation, result in words” value ([3]; −GSH and/or +GSH) was “activated NRF2 more potently and with higher efficacy than 4-octyl itaconate and 2-(2-chlorobenzyl)acrylic acid”. The “NRF2 activation −GSH Emax” value [3, 9] was 243%, the “−GSH Emax” value ([3]; −GSH, normalised to DMF high control, Table 5 exo vs endo comparison) was 243% and the hepatocyte CLint at 10 μM ([6]; Hepatocyte stability Clint) was 118 µL/min/1e6 cells. The half-life at 10 μM ([6]; Hepatocyte stability T½) was 12 min, the “stability in mouse cryopreserved hepatocytes, in words” value ([4]; mouse, hepatocytes) was “improved stability” and the hepatocyte CLint at 10 μM ([7]; Hepatocyte stability Clint) was 115 µL/min/1e6 cells. For the same compound, the half-life at 10 μM ([7]; Hepatocyte stability T½) was 12 min and the “stability in human cryopreserved hepatocytes, in words” value ([5]; human, hepatocytes) was “improved stability”.
